This note sets out measurements from patent US20220127267A1, “THIENO[3,2-B] PYRROLE[3,2-D]PYRIDAZINONE DERIVATIVES AND THEIR USE AS PKM2 DERIVATIVES FOR THE TREATMENT OF CANCER, OBESITY AND DIABETES RELATED DISORDERS” (Agios Pharmaceuticals, Inc., priority 2019, published 2022).

In one experiment the test system is RBCs. Put plainly: Cell Based ATP Assay in purified red blood cells (Cell-Titer-Glo). Further details: species or system human. Particulars: wild type PKR, ATP levels in RBCs, overnight at 37° C.; for AC50: Homo sapiens, Erythrocyte. As to the method: Fresh blood drawn from healthy volunteers into K2EDTA tubes was collected. Whole blood was pelleted by spinning at 500 g for 10 minutes. The transfusion bag port was cut off Purecell leukocyte reduction neofilter (Fisher NC0267633) one (1) inch above filter. A 10 ml syringe barrel was attached to the remaining cut tubing attached to the neofilter. The plasma layer was removed from the pellet of the whole blood and the pellet was resuspended in 2× volume of phosphate buffered saline (PBS). 9 ml re-suspended blood cell pellet was transferred to a 10 ml syringe that was attached to the neofilter. The whole blood was allowed to gravity flow through filter until all fluid ran through upper tubing into a filter disc. The plunger was added to the syringe. The filter was inverted and air was plunged through the syringe filter system. A new 5 ml syringe was used to remove filtered RBCs from the bag by the syringe port. Purified RBCs were transferred to a 5 ml snap cap tube that had been incubated on ice. The 5 ml snap cap tube was spun at 500 g for 10 minutes at 15 C. Supernatant was aspirated and resuspended in AGAM (1×PBS, 1% glucose, 170 mg/L adenine, 5.25 g/L mannitol) at a density of 4×10^9 cells/mL.
For cell based ATP assays, the compound as described herein was prepared in 100% DMSO as a 10 mM stock. Serial dilutions (1:4) were performed in 96-well V-bottom storage plate and then added 1:100 to 96-well V-bottom plates containing AGAM. 10 μL/well of compound diluted in AGAM was added to black clear bottom assay plates. RBCs were diluted in AGAM media to a density of 1×10^7 cells/mL before added 90 μL/well to black clear bottom assay plates (final compound concentration at 0.1% DMSO concentration). Assay plates were sealed using aluminum foil seals and incubated overnight at 37° C. in a humidified chamber. ATP levels were read out using Cell-Titer-Glo (Promega).

The target in the next experiment is PK R510Q (Homo sapiens, UniProt P30613, R510Q). The experiment can be described thus: PKR Mutant Assay (R510Q), LDH-coupled, absorbance 340 nm. The note with it: mutant PKR R510Q enzyme activation. The format is biochemical. The method, then:
(§1) PKR (WT or mutant) enzyme stock solution was diluted to prepare a 1.25× Reaction Mix (without ADP). 1 μL of test compound was first added to the wells followed by 40 μL of 1.25× Reaction Mix (without ADP) and incubated at room temperature (25° C.) for 60 min. The reaction was initiated with 10 μL ADP, bringing the final Reaction Mix to 1x, and the reaction progress was measured as changes in absorbance at 340 nm wavelength at room temperature.
(§2) Test compound preparation: Test compounds were prepared at 50× final concentration in DMSO. 1 to 3 dilutions were made for 11 points (for example 50 μL of 5000 μM compound was added to 100 μL 100% DMSO to yield a 1667 μM, 50 μL of this added to 100 μL DMSO to yield 556 μM, and so forth). The compounds were added to the assay as a 1 to 50 dilution (1 μL in 50 μL) to yield a top concentration of 100 μM, decreasing 3-fold for 11 points.
(§3) Reaction Mix: PKR (1.25-1000 ng/well, 0.025-20 μg/ml depending on the PKR mutant), ADP (0.05-2.3 mM depending on the PKR mutant), PEP (0.031-2 mM depending on the PKR mutant), NADH (180 μM), LDH (0.005 U/μL, Sigma #L3888), 1 mM DTT, 0.03% BSA in 1× Reaction Buffer
(§4) Reaction Buffer: 100 mM KCl, 50 mM Tris pH 7.5, 5 mM MgCl2.

The target of the next experiment is PKR K410E (Homo sapiens, UniProt P30613, K410E). Put plainly: PKR Mutant Assay (K410E), LDH-coupled, absorbance 340 nm. The format is biochemical. The note with it: mutant PKR K410E enzyme activation. The method, then: as §1, §2, §3, §4
Sequence of PKR K410E (P30613 whole entry K410E): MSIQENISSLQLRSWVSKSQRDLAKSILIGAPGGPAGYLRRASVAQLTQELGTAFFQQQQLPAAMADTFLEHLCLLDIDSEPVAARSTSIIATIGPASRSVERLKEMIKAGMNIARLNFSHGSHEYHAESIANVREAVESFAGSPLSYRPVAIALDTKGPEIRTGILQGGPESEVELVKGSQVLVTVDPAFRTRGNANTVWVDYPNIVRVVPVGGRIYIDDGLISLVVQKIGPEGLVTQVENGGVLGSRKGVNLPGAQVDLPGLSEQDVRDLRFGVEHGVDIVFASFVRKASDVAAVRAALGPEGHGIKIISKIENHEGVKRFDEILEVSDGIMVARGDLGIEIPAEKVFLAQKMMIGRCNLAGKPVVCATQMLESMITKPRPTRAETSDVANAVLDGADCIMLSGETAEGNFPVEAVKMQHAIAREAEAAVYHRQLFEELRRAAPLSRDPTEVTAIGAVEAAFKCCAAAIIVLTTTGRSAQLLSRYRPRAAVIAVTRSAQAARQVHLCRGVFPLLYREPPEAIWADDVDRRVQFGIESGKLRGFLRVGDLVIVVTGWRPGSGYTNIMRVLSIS
The target of the next experiment is PKR WT (Homo sapiens, UniProt P30613). The experiment can be described thus: PKR enzyme assay (WT), LDH-coupled, absorbance 340 nm. Type of experiment: biochemical. Particulars: wild type PKR enzyme activation. As to the method: as §1, §2, §3, §4
Sequence of PKR WT (P30613 whole entry): as the sequence (P30613 whole entry K410E) above, with E410K counted along it

The term AC50 denotes the concentration giving half of the maximal activity seen. Read a high AC50 as weaker potency.

Sequence of PK R510Q (P30613 whole entry R510Q): as the sequence (P30613 whole entry K410E) above, with E410K, R510Q counted along it

In the case of `Cn1ccc(Cn2ncc3c4cc(Cc5cscn5)ncc4n(C)c3c2=O)n1` [Cpd 67], the AC50 was at most 1000 nM in the experiment with RBCs, below 300 nM at PK R510Q, below 300 nM at PKR K410E and below 300 nM on PKR WT.
As for `COc1cccc(Cn2ncc3c(c(C#N)n4cc(C)sc34)c2=O)c1` [Cpd 11], the “Cell based ATP assay AC50” value with RBCs is “No Fit”. For the same compound, the AC50 at PK R510Q, at PKR K410E and at PKR WT was below 300 nM throughout.
In the case of `COc1cccc(Cn2ncc3c(c(Br)n4cc(C)sc34)c2=O)c1` [Cpd 68], the AC50 is above 1000 nM with RBCs, below 300 nM on PK R510Q, below 300 nM on PKR K410E and below 300 nM on PKR WT.
Turning to `Cn1c2cc(Cc3cscn3)sc2c2cnn(Cc3ccccn3)c(=O)c21` [Cpd 7], the AC50 with RBCs was at most 1000 nM; at PK R510Q, below 300 nM; at PKR K410E, below 300 nM; at PKR WT it was below 300 nM.
As to `COc1cccc(Cn2ncc3c(c(C(F)(F)F)n4cc(C)sc34)c2=O)c1` [Cpd 10], the “Cell based ATP assay AC50” value in the experiment on RBCs is on record as “No Fit”. Also, on PK R510Q, the “PK R510Q AC50” value is “No Fit”. Also, on PKR K410E, the “PKR K410E AC50” value is recorded as “No Fit”. The same compound returned an AC50 at PKR WT below 300 nM.
In the case of `COc1cccc(Cn2ncc3c4c(cnn4C)n(C)c3c2=O)c1` [Cpd 27], the “PK R510Q AC50” value on PK R510Q was “No Fit”. The “PKR K410E AC50” value on PKR K410E is recorded as “No Fit”. On PKR WT, the “PKR WT AC50” value was “No Fit”.
As for `COc1cccc(Cn2ncc3c4cccc(Br)c4n(C)c3c2=O)c1` [Cpd 33], the “PK R510Q AC50” value at PK R510Q is recorded as “No Fit”. Moreover, the “PKR K410E AC50” value on PKR K410E is reported as “Inhibition”. Moreover, on PKR WT, the “PKR WT AC50” value is “No Fit”.
For the compound `Cc1c2c(=O)n(Cc3ccn(C)n3)ncc2c2sc(CO)cn12` [Cpd 14], the AC50 was at most 1000 nM in the experiment with RBCs, below 300 nM on PK R510Q, below 300 nM on PKR K410E and below 300 nM on PKR WT.
Consider `Cn1c2ccc(S(=O)(=O)c3ccccc3)cc2c2cnn(Cc3cccc(C(N)=O)c3)c(=O)c21` [Cpd 57], for which the AC50 in the experiment with RBCs is above 1000 nM; at PK R510Q, below 300 nM; on PKR K410E, above 800 nM; on PKR WT it was 301 to 800 nM.
On to `COc1cccc(Cn2ncc3c4nn(Cc5ccccc5)cc4n(C)c3c2=O)c1` [Cpd 28], for which the AC50 at PK R510Q was below 300 nM; at PKR K410E, 301 to 800 nM; at PKR WT it was 301 to 800 nM.
`COc1cccc(Cn2ncc3c4ccncc4n(C)c3c2=O)c1` [Cpd 64]: the values for the AC50 at PK R510Q, at PKR K410E and at PKR WT were below 300 nM, 301 to 800 nM and 301 to 800 nM, respectively.
`COc1cccc(Cn2ncc3c(c(C#CCO)n4cc(C)sc34)c2=O)c1` [Cpd 13]: in the experiment with RBCs, the “Cell based ATP assay AC50” value is “No Fit”. In addition, the AC50 on PK R510Q, at PKR K410E and on PKR WT was 301 to 800 nM in each case.
For the compound `Cc1cn2c(s1)c(C)c1c(=O)n(Cc3cc[nH]n3)ncc12` [Cpd 22], in the experiment with RBCs, the “Cell based ATP assay AC50” value is reported as “No Fit”. Moreover, the AC50 on PK R510Q, at PKR K410E and at PKR WT was above 800 nM in each case.
In the case of `Cc1cn2c(C)c3c(=O)n(Cc4ccn(C)n4)ncc3c2s1` [Cpd 21], the half-maximal activity concentration (AC50) is at most 1000 nM in the experiment with RBCs, below 300 nM on PK R510Q, below 300 nM on PKR K410E and below 300 nM on PKR WT.
Regarding `COc1cccc(Cn2ncc3c(c(C)n4cc(C)sc34)c2=O)c1` [Cpd 9], the AC50 in the experiment on RBCs was above 1000 nM; at PK R510Q it was below 300 nM; at PKR K410E it was below 300 nM; on PKR WT, below 300 nM.
With `Cn1c2cc(S(C)(=O)=O)ccc2c2cnn(Cc3cccc(C(N)=O)c3)c(=O)c21` [Cpd 53], the AC50 in the experiment on RBCs is above 1000 nM; on PK R510Q it was below 300 nM; on PKR K410E, 301 to 800 nM; on PKR WT it was 301 to 800 nM.
Regarding `COc1cccc(Cn2ncc3c4ccc(C#N)cc4n(C)c3c2=O)c1` [Cpd 47], the AC50 on PK R510Q is below 300 nM; at PKR K410E it was below 300 nM; at PKR WT it was 301 to 800 nM.
Turning to `COC(=O)c1ccc2c3cnn(Cc4cccc(OC)c4)c(=O)c3n(C)c2c1` [Cpd 40], the “PK R510Q AC50” value on PK R510Q is “No Fit”. The compound further showed an AC50 at PKR K410E below 300 nM. In addition, the “PKR WT AC50” value on PKR WT was “No Fit”.
